Assay results as given in US8093043B2, “β-TrCP1, β-TrCP2 and RSK1 or RSK2 inhibitors and methods for sensitizing target cells to apoptosis” (New York University, priority 2008, dated 2012).
Entries after “also recorded” stand apart in the source; their conditions may differ. Non-standard residues stand in square brackets, D forms with d. Residues, ends and D or L forms follow the SMILES beside them. No end group written: not given here. *: point of attachment. pS = N[C@@H](COP(=O)(O)O)C(=O)O; Cbz = O=C(OCc1ccccc1)*

Key:
BimEL [1] = experiment: BimEL accumulation in MEFs after pharmacological RSK inhibition (immunoblot); assay type: cell-based, mouse; settings: MEFs, 0, 1 and 5 μM BI-D1870 for 12 hours, immunoblot for Bim
Procedure: MEFs were treated with 0, 1 and 5 μM BI-D1870 for 12 hours. Cell extracts were then immunoblotted for the Bim and HSP70 (control) proteins.
Western Blotting (IP-Western). Immuno-blotting was conducted essentially as described in Donzelli et al. (2002), supra. Three pieces of the Whatman paper were wetted in Western transfer buffer (48 mM Tris Base, 39 mM Glycine, 0.0375% SDS, and 20% Methanol in ddH2O), excess of buffer was removed and pieces were placed onto the platinum anode (BIO-RAD semi-dry trans-blot SD). The nitrocellulose was wetted in the same buffer and placed onto the Whatman paper. The gel was wetted in the transfer buffer for 5 to 10 seconds and placed onto the nitrocellulose. Three pieces of Whatman paper were wetted and, removing excess of buffer, placed onto the gel. Air bubbles were removed throughout this procedure. The trans-blot cathode was placed onto the stack. The gel was transferred at a constant voltage between 15 to 25V for 30 minutes.

primary thymocytes = experiment: Cell death of primary thymocytes from Bim+/+ or Bim−/− mice (propidium iodide flow cytometry); assay type: cell-based, mouse; settings: primary thymocytes (T cells) from Bim+/+ or Bim−/− mice, 10 mM BI-D1870, 0-5 days
Procedure: Cell death was induced by addition of 10 mM BI-D1870 for 0-5 days in primary thymocytes obtained from Bim+/+ or Bim−/− mice. Cell viability was determined by flow cytometric analysis by staining the cells with propidium iodide. Cell debris was excluded from analysis based on its forward and sideward scatter characteristics. The experiment was performed in triplicate using 3 Bim+/+ and 2 Bim−/− mice for each experiment. Data shown are the means±1 SD.
Cells. HeLa (from ATCC) and U2OS (from ATCC) cells were cultured essentially as described in Donzelli et al. (EMBO J., 2002; 21:4875-84). Cells were grown at 37° C. in a 5% CO2 atmosphere in Dulbecco's modified Eagle's medium (Euroclone) supplemented with 10% bovine calf serum (Hyclone) and 2 mM L-glutamine (Euroclone), or in DMEM containing 5% fetal calf serum (FCS, from GIBCO). HEK293 (from ATCC), Bim−/− MEFs and Bax−/−; Bak−/− immortalized mouse embryo fibroblasts (MEFs) (from Dr. Huang at The Walter and Eliza Hall Institute of Medical Research, Australia; see Bouillet et al., Science, 1999, 286:1735-1738; Lindsten et al., Mol. Cell, 2000, 6:1389-1399) were maintained in Dulbecco's modified Eagle's medium (DMEM) containing 10% fetal bovine serum (FBS, from GIBCO). H1650 and HCC827 cells (both from ATCC) were maintained in RPMI-1640 medium (GIBCO) containing 10% FBS. Primary thymocytes were obtained from 6 week Bim+/+ or Bim−/− mice. […]

BimEL [2] = experiment: PMA-induced BimEL degradation in HEK293 cells (immunoblot); assay type: cell-based, human
Text: siRNA. β-TrCP1/2 siRNA […] (SEQ ID NO:19) (Guardavaccaro et al., In vivo Dev Cell, 2003, 4:799-812; Margottin-Goguet cl al., Dev Cell, 2003; 4:813-26); RSK1 siRNA […] (SEQ ID NO:21) and RSK2 siRNA […] (SEQ ID NO:22) (Anjum et al., Curr Biol., 2005, 15:1762-7; Roux et al., J Biol. Chem., 2007, 282:14056-64). Control oligonucleotide was a dsRNA oligo to LacZ mRNA […] (SEQ ID NO:28). All siRNA oligonucleotides were from Dharmacon Research Inc. (Lafayette, Colo.). Cells were transfected with siRNA duplexes by Oligofectamine (Invitrogen, Carlsbad, Calif.), following manufacturer's instructions. Cells were transfected with the oligos twice (at 24 and 48 hours after plating) using oligofectamine (Invitrogen) for HEK293, HiPerFect (Qiagen) for NSCLC cell lines, or the AMAXA nucleofactor (Amaxa Inc. Gaithersburg, Md.) for CD4+ human T cell blasts at day 5, according to manufacturer's recommendations. 24 or 48 hours after the last transfection, cells were collected and analyzed.
(§1) When βTrCP1/2 is silenced (FIG. 4A) or RSK1/2 is silenced (FIG. 4B), BimEL's degradation (induced with PMA) is inhibited. […] For the experiments shown in FIG. 4A, HEK293 cells were treated with control siRNA (SEQ ID NO:28) or siRNA targeting βTrcp1/2 (SEQ ID NO:19). 48 hours after siRNA treatment cells were treated with PMA or with PMA+MG 132 (last four lanes) for indicated times. Protein extracts were immunoblotted for the indicated proteins.
For the experiments shown in FIG. 4B, HEK293 cells were treated with control siRNA (SEQ ID NO:28) or siRNA targeting RSK 1 (SEQ ID NO:21) and RSK2 (SEQ ID NO:22). 48 hours after siRNA treatment cells were treated with PMA for indicated times. Protein extracts were immunoblotted for the indicated proteins.

BimEL [3] = experiment: In vivo phosphorylation of BimEL on Ser93/94/98 (immunoprecipitation, phospho-specific antibody); assay type: cell-based; settings: cells serum deprived 24 hours, PMA for 10 minutes
Procedure: Serines 93, 94 and 98 were also shown to be phosphorylated in vivo following activation of ERK by either serum addition or PMA (FIG. 2C). In this experiment, BimEL from cells treated with PMA as well as from cells released from serum starvation were immunoprecipitated. In the experiments in FIG. 2C, cells were serum deprived (SD) for 24 hours, serum released (SR) for 10 minutes (lane 2) or treated with PMA for 10 minutes (lane 3-5). Whole cell extracts (WCE) were subjected to immunoprecipitation using HA resin (α-HA) followed by immunoblotting for β-TrCP1, and antiHA (for BimEL).

H1650 cells = settings: EGFR mutant NSCLC; cited from earlier work
βTrCP = βTrCP knockdown efficiency (Cdc25A accumulation, RT-PCR); assay type: cell-based, human; settings: HEK293 cells; accumulation of Cdc25A, confirmed by RT-PCR
Procedure: FIGS. 8A-E represent quantitative analysis of βTrCP1 mRNA in HEK293, HCC827, H1650 cell lines and CD4+ human T cells treated with an siRNA oligo targeting both βTrCP1 and βTrCP2 mRNAs (SEQ ID NO:19). Representative examples showing knockdown efficiency for βTrCP siRNA by RT-PCR analysis with oligo-dT-primed, reverse-transcribed cDNA derived from total RNA that was prepared from the indicated cells transfected with either control or βTrCP siRNAs. Quantitative PCR was conducted using locus-specific primers: forward […] (SEQ ID NO:29) and reverse […] (SEQ ID NO:30) (n=3, ±SD). For HEK293 cells, knockdown efficiency was additionally analyzed by βTrCP1 immunoprecipitation and subsequent immunoblot analysis (D).
as §1

β-TrCP1 = target: T1, β-TrCP1 (Homo sapiens, UniProt Q9Y297); experiment: In vitro peptide binding assay with 35S-labeled in vitro translated β-TrCP1; settings: autoradiography; Fbxw2 and Fbxw4 as comparison
T1 construct: host or cells: cell-free in vitro transcription/translation in reticulocyte lysate
T1 sequence (Q9Y297 1-605): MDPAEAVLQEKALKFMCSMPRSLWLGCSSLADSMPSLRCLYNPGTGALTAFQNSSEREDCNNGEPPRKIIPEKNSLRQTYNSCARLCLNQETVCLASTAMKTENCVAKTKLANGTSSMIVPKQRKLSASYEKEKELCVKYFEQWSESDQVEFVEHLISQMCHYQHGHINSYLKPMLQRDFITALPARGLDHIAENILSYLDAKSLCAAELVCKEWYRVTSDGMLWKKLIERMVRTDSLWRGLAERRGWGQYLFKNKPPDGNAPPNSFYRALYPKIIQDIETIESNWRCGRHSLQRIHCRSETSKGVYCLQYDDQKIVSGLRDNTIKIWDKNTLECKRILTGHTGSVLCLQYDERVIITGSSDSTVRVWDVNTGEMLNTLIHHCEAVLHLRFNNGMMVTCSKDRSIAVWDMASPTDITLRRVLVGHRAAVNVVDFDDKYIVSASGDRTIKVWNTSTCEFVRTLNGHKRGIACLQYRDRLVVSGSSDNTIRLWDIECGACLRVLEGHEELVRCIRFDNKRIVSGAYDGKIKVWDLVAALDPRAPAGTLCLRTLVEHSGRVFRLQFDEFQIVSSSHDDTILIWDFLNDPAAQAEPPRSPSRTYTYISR
Procedure: Peptide binding assay. The peptides were coupled to agarose beads using the Aminolink Kit (Pierce, Rockford, Ill.). Coupled BimEL, β-TrCP1/2, RSK1/2, or Cdc25A peptides (10 mg) were incubated with ^35S-methionine-labeled in vitro-translated β-TrCP1/2, FBXW2 or FBXW4, using the TNT-coupled reticulocyte lysate system (Promega, Madison, Wis.) in the presence of 5 μCi of ^35S-labeled methionine (Amersham Biosciences, Piscataway, N.Y.). Agarose beads were washed with RIPA buffer and binding was assayed by SDS-PAGE followed by autoradiography.
In this experiment in vitro binding assays were performed using in, vitro translated β-TrCP1 and a purified BimEL peptide composed of 13 amino-acids containing the degron motif. The in vitro binding assays were performed between ^35S-labeled in vitro transcribed/translated β-Trcp1, Fbxw2 and Fbxw4 and beads-coupled BimEL peptide ^88[…]^100 (SEQ ID NO:24) or BimEL phosphopeptide ^88CLSRSpSpSGYFpSFD^100 (SEQ ID NO:25). Bound proteins were eluted and subjected to electrophoresis and autoradiography.

[4] = siRNAs targeting RSK1 and RSK2 used together, PMA 48 hours after siRNA

**Q.** Which results are given for CC(C)CCN1c2nc(Nc3cc(F)c(O)c(F)c3)ncc2N(C)C(=O)C1C (stereo not shown) [BI-D1870]?
**A.** BimEL accumulation (BimEL [1]): induced BimEL accumulation; also recorded: induces an accumulation of BimEL; Bim-dependent cell death / cell viability (primary thymocytes): from wild-type mice, but not from Bim^−/− mice, died; also recorded: induces Bim-dependent cell death

**Q.** With CC(C)C[C@@H](C=O)NC(=O)[C@H](CC(C)C)NC(=O)[C@H](CC(C)C)NC(=O)OCc1ccccc1 [MG132] (Cbz-Leu-Leu-Leu-aldehyde) as the molecule, how does the “effect on PMA-induced BimEL degradation” value (BimEL [2]; PMA+MG 132) read?
**A.** Inhibition of BimEL's degradation

**Q.** For CCCCCCCCCCCCCC(=O)O[C@@H]1[C@@H](C)[C@@]2(O)[C@@H](C=C(CO)C[C@]3(O)C(=O)C(C)=C[C@@H]23)[C@@H]2C(C)(C)[C@]12OC(C)=O [PMA], which “phosphorylation of BimEL on Ser93/94/98” value (BimEL [3]) is on record?
**A.** rapidly induced

**Q.** Which sensitivity to gefitinib (H1650 cells) does the source give for COc1cc2ncnc(Nc3ccc(F)c(Cl)c3)c2cc1OCCCN1CCOCC1 [gefitinib] here?
**A.** not

**Q.** With “AGCGCUGAGAAUGGACAGCAA (listed as RNA, chemistry not given here; listed as Homo sapiens) [SEQ ID NO:22, siRNA for human RSK2]” as the molecule, how does the “effect on PMA-induced BimEL degradation” value (BimEL [2]; [4]) read?
**A.** counteracted the effect of PMA on BimEL degradation, stabilizing BimEL

**Q.** For “CCCAACAUCAUCACUCUGAAA (listed as RNA, chemistry not given here; listed as Homo sapiens) [SEQ ID NO:21, siRNA for human RSK1]”, which “effect on PMA-induced BimEL degradation” value (BimEL [2]; [4]) is on record?
**A.** counteracted the effect of PMA on BimEL degradation, stabilizing BimEL

**Q.** Which “effect on PMA-induced BimEL degradation” value (BimEL [2]; siRNA targeting βTrcp1/2, PMA 48 hours after siRNA) does the source give for GUGGAAUUUGUGGAACAUC [SEQ ID NO:19] here?
**A.** counteracted the effect of PMA on BimEL degradation, stabilizing BimEL

**Q.** What about the βTrCP knockdown (βTrCP) of the same molecule?
**A.** efficient βTrCP knockdown

**Q.** With “^88CLSRSpSpSGYFpSFD^100 (CLSRS[pS][pS]GYF[pS]FD; listed as Homo sapiens) [SEQ ID NO:25, BimEL phosphopeptide of 13 amino acids containing the degron motif]” as the molecule, how does the “binding of βTrCP1 to beads-coupled BimEL peptide” value (β-TrCP1) read?
**A.** binds specifically
